Results taken from US9861096B2, “Biodegradable chemical delivery system” (Cornell University, priority 2008, dated 2018).

Test: Identification of Columbia Blue in release media by LC/MS (stability)
Assay type: physicochemical
Conditions: water at room temperature and PBS pH 7.4 at 37° C., 16 week release experiments
Description: The concentration of Columbia Blue was determined using Liquid Chromatography/Mass Spectroscopy (LC/MS) (Agilent Technologies 6130 Quadrupole LC/MS), and the Columbia Blue was identified using mass spectroscopy. The column used was a Restek Ultra C18, 5 μm, 250×4.6 mm. The mobile phase consisted of 60% acetonitrile and 40% water at a flow rate of 1.0 ml/min. The concentration was determined using UV detection at a wavelength of 374 nm.
A model pesticide, Columbia Blue, was chosen following Briggs's “rule of 3” (Briggs, G. G., Uptake of Agrochemicals & Pharmaceuticals ‘Predicting uptake & movement of agrochemicals from physical properties’, in SCI Meeting. 1997) and Clarke-Delaney's “guide of 2” (Clarke, E. D. and J. S. Delaney, Designing Drugs and Crop Protectants: Processes, Problems and Solutions, ed. D. L. M. Ford, J. Dearden, H. V. de Waterbeemd. 2003: Blackwell Publishing, Malden). During the release measurements, Columbia Blue was identified by the LC/MS. The retention time of Columbia Blue of HPLC spectrum remained unchanged at 9.8 minutes.

Columbia Blue
degradation of Columbia Blue in the release media: did not degrade
